Results reported in article PMC5845353, “The selective cathepsin K inhibitor MIV-711 attenuates joint pathology in experimental animal models of osteoarthritis” (Journal of Translational Medicine, 2018).
Values joined by “and” are separate entries in the source; they are usually repeats but may differ in a detail not shown here. Equal values may be shown once.

How the values were obtained:
Type in all cases: in vivo
[1] = test system: dogs subjected to partial medial meniscectomy; experiment: Dog partial medial meniscectomy study, tibial cartilage lesion area by imaging analysis of photographs; settings: 30 µmol/kg
Procedure: Dogs subjected to partial medial meniscectomy received either 30 µmol/kg MIV-711 (synthesized by Medivir and given as a suspension in 1% Methocel A4C; n = 15) or vehicle (1% Methocel A4C; n = 15) by orogastric gavage once daily in the morning. […] Dosing started the day before surgery and lasted through Day 28, the day before necropsy. Each dog was fasted for at least 12 h before dosing and food were returned approximately 4 h following test article administration.
All animals were humanely euthanized on Day 29 to collect specimens for pathology. Following sedation with acepromazine, euthanasia was performed via injection of a pentobarbital-based euthanasia solution (≥ 88 mg/kg pentobarbital). At study termination, the left (operated) knee was opened, disarticulated and the lesions on the medial tibia and femur measured, described and photographed. The observers were blinded to the treatment. Photographs were used (with or without India Ink lesion enhancement) to determine % area of lesions on each medial tibial plateau. Lesions were classified as more severe or less severe depending on the intensity of India ink staining or perception of depth and areas for each calculated. Gross cartilage lesions were measured (length × width) and described as superficial, moderate, or deep. Gross subjective cartilage degeneration scores were assigned for the medial and lateral tibial and femoral compartments as follows based on lesion measurements (see above): 0: normal, 1: superficial degeneration up to 10 mm^2, 2: superficial degeneration greater than 10 mm^2, 3: moderate depth degeneration up to 15 mm^2, 4: moderate depth degeneration greater than 15 mm^2. Subjective scores for the various regions were then used to generate an overall index of subjective cartilage degeneration for each region for each animal. Actual measurements of cartilage lesions were used to derive a calculated set of data points based on length × width × depth score (with depth score of 1 = superficial, 2 = medium, and 3 = deep, based on gross description). Percent of more or less severe tibial lesion area was determined from photographs taken at necropsy.

[2] = test system: dogs subjected to partial medial meniscectomy; experiment: Dog partial medial meniscectomy study, sclerosis of subchondral bone and bone area
From the text: Sclerosis of subchondral bone (an indication of altered load-bearing) was described and documented for femur using a comparison of medial to lateral, but was not included in the overall cartilage degeneration scores. This parameter was scored based on percent width of the medial femur with obviously thickened subchondral bone according to the following criteria: 0=normal 1=up to 10% of femur width has thickened trabeculae 2=11-30 % of femur width has thickened trabeculae 3=31-60 % of femur width has thickened trabeculae 4=61-90 % of femur width has thickened trabeculae 5=>90% of femur width has thickened trabeculae An additional measure of bone area was performed as follows: The photo file was opened and a fixed segment of 1000 by 400 pixels was selected with the bottom left and right corners touching the tidemark: The selected segment was opened in a new file and segmented into fourths: Black lines were drawn on the three segmenting lines in areas of no bone: Lengths of each individual drawn segment were summed per line for a total length of area of no bone, then divided by the total length of the image and calculated into a percent. Percent of no bone was calculated for each of the three segmented lines and then averaged for a mean percent of no bone for the image.

[3] = test system: dogs subjected to partial medial meniscectomy; experiment: Dog study, principal components analysis of exposure, biomarker, macro- and microscopic data; settings: 30 µmol/kg, p < 0.001
Procedure: Biomarker data was evaluated by two-way ANOVA, followed by Bonferroni’s or Dunnett’s correction for multiple comparisons when appropriate, using GraphPad Prism, version 6 (San Diego, CA). Synovial MIV-711 exposure data was evaluated by Student’s paired t-test. Data from µCT in rabbits was evaluated by one-way ANOVA followed by Dunnett’s correction for multiple comparisons (GraphPad). Macroscopic parameters in dogs were compared using Student’s unpaired t-test. The exposure data, biomarker data and macro- and microscopic data from the dog study were also imported into R (R Foundation for Statistical Computing Version 2.15.0, Vienna, Austria). A principal components analysis was performed using procedure prcomp. Derived scores were subjected to t-tests in Microsoft Excel 2007. Data are expressed as mean ± SEM, n = number of animals. A p-value < 0.05 was considered statistically significant.

[4] = dog partial medial meniscectomy, group Mean
[5] = dog partial medial meniscectomy, versus Vehicle group

`C#C[C@@H]1CN(C(=O)[C@H](CC(C)C)NC(=O)c2ccc(-c3nc(N4CCN(C)CC4)sc3F)cc2)[C@@H]2C(=O)CO[C@H]12` [MIV-711] was tested, and the “Total lesion area, reduction vs vehicle (printed in Fig. 7)” value ([1]; dog, left tibia plateau) was 26%, the “proportion of tibial cartilage affected by lesions (lesioned area)” value ([1]; dog, left tibia plateau, vehicle 21.0% ± 2.6) was 15.5% and the “area of severe lesions, lower than vehicle group” value ([1]; dog, p = 0.08) was 80%. For the same compound, the “dogs with severe tibial cartilage lesions” value ([1]; dog, vehicle 6/15) was 3/15, the “area of severe tibial cartilage lesions” value ([1]; three dogs with severe lesions, vehicle 10 ± 4%) was 2 ± 1% and the “Bone Score” value ([2]; MIV-711 group mean, sclerosis of subchondral bone) was 3.07. For the same compound, the “% inhibition, Bone Score” value ([2]; MIV-711 group vs vehicle) was 4%, the “Percent Length of no Bone, LFC Mean” value [2, 4] was 57% and the “Percent Length of no Bone, LFC Site 1” value [2, 4] was 59%. For the same compound, the “Percent Length of no Bone, LFC Site 2” value [2, 4] was 58%, the “Percent Length of no Bone, LFC Site 3” value [2, 4] was 54% and the “Percent Length of no Bone, MFC Mean” value [2, 4] was 39%. For the same compound, the “Percent Length of no Bone, MFC Site 1” value [2, 4] was 42%, the “Percent Length of no Bone, MFC Site 2” value [2, 4] was 39% and the “Percent Length of no Bone, MFC Site 3” value [2, 4] was 36%. For the same compound, the “Percent Length of no Bone, Overall Mean” value [2, 4] was 48%, the “Percent Length of no Bone, LFC Site 2” value ([2]; dog partial medial meniscectomy, individual animal, LFC site 2) was 50% and 62% and 55% and 63% and 66% and 57% and 51% and 54% and 59% and 45% and 60% and 72% and the “Percent Length of no Bone, LFC Site 3” value ([2]; dog partial medial meniscectomy, individual animal, LFC site 3) was 42% and 48% and 49% and 64% and 60% and 58% and 45% and 59% and 47% and 46% and 56% and 71% and 52%. The “Percent Length of no Bone, MFC Site 1” value ([2]; dog partial medial meniscectomy, individual animal, MFC site 1) was 47% and 50% and 24% and 35% and 52% and 38% and 36% and 57% and 44% and 48% and 51% and 21%, the “Percent Length of no Bone, MFC Site 2” value ([2]; dog partial medial meniscectomy, individual animal, MFC site 2) was 32% and 42% and 21% and 39% and 46% and 38% and 52% and 37% and 34% and 51% and 27% and 57% and 26% and 36% and the “Percent Length of no Bone, MFC Site 3” value ([2]; dog partial medial meniscectomy, individual animal, MFC site 3) was 34% and 33% and 21% and 36% and 51% and 24% and 32% and 22% and 49% and 44% and 41% and 40%. For the same compound, the “Percent Length of no Bone, LFC Site 1” value ([2]; dog partial medial meniscectomy, individual animal, lateral femoral condyle site 1) was 58% and 64% and 49% and 53% and 63% and 54% and 70% and 57% and 61% and 46% and 66% and 67%, the “Percent Length of no Bone, LFC Mean” value ([2]; dog partial medial meniscectomy, individual animal, mean of LFC sites 1-3) was 50% and 58% and 51% and 60% and 63% and 56% and 55% and 54% and 52% and 70% and the “Percent Length of no Bone, MFC Mean” value ([2]; dog partial medial meniscectomy, individual animal, mean of MFC sites 1-3) was 38% and 42% and 22% and 37% and 50% and 33% and 51% and 35% and 30% and 52% and 46%. For the same compound, the “Percent Length of no Bone, Overall Mean” value ([2]; dog partial medial meniscectomy, individual animal, overall mean LFC and MFC) was 44% and 50% and 37% and 48% and 56% and 45% and 53% and 54% and 46% and 49%, the “% inhibition of Percent Length of no Bone, LFC Mean” value [2, 5] was 1% and the “% inhibition of Percent Length of no Bone, LFC Site 1” value [2, 5] was -4%. The “% inhibition of Percent Length of no Bone, LFC Site 2” value [2, 5] was 2%, the “% inhibition of Percent Length of no Bone, LFC Site 3” value [2, 5] was 6% and the “% inhibition of Percent Length of no Bone, MFC Mean” value [2, 5] was -10%. For the same compound, the “% inhibition of Percent Length of no Bone, MFC Site 1” value [2, 5] was -12%, the “% inhibition of Percent Length of no Bone, MFC Site 2” value [2, 5] was 1% and the “% inhibition of Percent Length of no Bone, MFC Site 3” value [2, 5] was -21%. For the same compound, the “% inhibition of Percent Length of no Bone, Overall Mean” value [2, 5] was -3%, the “effects on subchondral bone sclerosis and bone area at the microscopic level” value ([2]; dog, 30 µmol/kg) was “no significant effects” and the “Bone Score” value ([2]; individual dogs of MIV-711 group, scoring of sclerosis of subchondral bone) was 5 and 3 and 4 and 2 and 1. The “principal component Score 2 (mainly biomarker data), vehicle vs MIV-711-treated groups” value [3] was “significantly different”.
